Source: the supplement of paper PMC11208160

Assay: recombinant UMI read abundance after kanamycin selection (control-corrected) (log10(CPM+1)); higher = more efficient recombination; extreme values may be limits of the assay; sequences stand for … in AGTGCAGAGAAAATCGGCCAGTTTTCTCTGCCTGCAGTCCGCATGCCGTGGGACCCCTTGGGTTCTAACCTGTTGCCTAGATTTATGCAGCGGACTGCCTTTCTCCCAAAGTGATAAACCGG…AGGTTGGTTTCACT; site = the 11-nt donor
Summary of the method: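 In a pooled Escherichia coli screen for the IS621 bridge recombinase, donor and donor-binding-loop pairs were each placed with a 12-nt UMI on a plasmid bearing a promoterless kanamycin gene. This library was co-electroporated with a target plasmid encoding a fixed target and T7-inducible recombinase, and cells were plated either on IPTG (0.07 mM) plus kanamycin or without selection, in two replicates each. Recombinant UMIs were PCR-amplified across the donor–target junction and sequenced, and counts were converted to CPM, averaged over replicates, scaled by control-derived factors and reported as log10(CPM+1).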
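Note: IS621 bridge recombinase in Escherichia coli cells against a fixed T5 target plasmid.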

Sequence	recombinant UMI read abundance (log10)
AGCTCAGCATGGACCGGTTTTCCCGGTAATCCGTATTTGGT (site AGCTCAGCTTC)	0.0112
AGCTCCGCATGGACCGGTTTTCCCGGTAATCCGTATTTGGG (site AGCTCAGCTCC)	0.00775
AGCTCCGCATGGACCGGTTTTCCCGGTAATCCGTATTTGGG (site AGCTCCGCTCC)	0.211
AGCTCCGCATGGACCGGTTTTCCCGGTAATCCGTATTTGGG (site AGCTCGGCTCC)	0.0125
AGCTCCGCATGGACCGGTTTTCCCGGTAATCCGTATTTGGG (site AGCTCTGCTCC)	0.00972
AGCTGGGCATGGACCGGTTTTCCCGGTAATCCGTATTTGTA (site AGCTGGGCTTA)	2.76
AGCTTAGCATGGACCGGTTTTCCCGGTAATCCGTATTTGCC (site AGCTTAGCTGG)	0
AGCTTCCCATGGACCGGTTTTCCCGGTAATCCGTATTTGTG (site AGATTCCCTCA)	0.114
AGCTTCCCATGGACCGGTTTTCCCGGTAATCCGTATTTGTG (site AGCTTCCCTCA)	0.00566
AGCTTCCCATGGACCGGTTTTCCCGGTAATCCGTATTTGTG (site AGGTTCCCTCA)	0.00784
AGCTTCCCATGGACCGGTTTTCCCGGTAATCCGTATTTGTG (site AGTTTCCCTCA)	0.0209
AGCTTTCCATGGACCGGTTTTCCCGGTAATCCGTATTTGGA (site AGCTTTCCTTC)	0.00277
AGGAAAACATGGACCGGTTTTCCCGGTAATCCGTATTTGCA (site AGGAAAACTTG)	0.959
AGGAAAACATGGACCGGTTTTCCCGGTAATCCGTATTTGCA (site AGGAACACTTG)	0
AGGAAAACATGGACCGGTTTTCCCGGTAATCCGTATTTGCA (site AGGAAGACTTG)	0
AGGAAAACATGGACCGGTTTTCCCGGTAATCCGTATTTGCA (site AGGAATACTTG)	0
AGGAAAACATGGACCGGTTTTCCCGGTAATCCGTATTTGTA (site AGGAAAACTTA)	1.92
AGGAAAACATGGACCGGTTTTCCCGGTAATCCGTATTTGTA (site AGGAAGACTTG)	0
AGGAACACATGGACCGGTTTTCCCGGTAATCCGTATTTGCA (site AGGAAAACTTG)	0
AGGAACACATGGACCGGTTTTCCCGGTAATCCGTATTTGCA (site AGGAACACTTG)	2.52
AGGAACACATGGACCGGTTTTCCCGGTAATCCGTATTTGCA (site AGGAAGACTTG)	0
AGGAACACATGGACCGGTTTTCCCGGTAATCCGTATTTGCA (site AGGAATACTTG)	0.211
AGGAAGGCATGGACCGGTTTTCCCGGTAATCCGTATTTGCT (site AGAAAGGCTAG)	2.69
AGGAAGGCATGGACCGGTTTTCCCGGTAATCCGTATTTGCT (site AGCAAGGCTAG)	0.362
AGGAAGGCATGGACCGGTTTTCCCGGTAATCCGTATTTGCT (site AGGAAGACTTG)	0.296

Sequence	recombinant UMI read abundance (log10)
AGGAAGGCATGGACCGGTTTTCCCGGTAATCCGTATTTGCT (site AGGAAGGCTAG)	2.27
AGGAAGGCATGGACCGGTTTTCCCGGTAATCCGTATTTGCT (site AGTAAGGCTAG)	1.3
AGGAAGGCATGGACCGGTTTTCCCGGTAATCCGTATTTGGA (site AGGAAGACTTG)	0.224
AGGAAGGCATGGACCGGTTTTCCCGGTAATCCGTATTTGGA (site AGGAAGGCTTC)	1.73
AGGAAGTCATGGACCGGTTTTCCCGGTAATCCGTATTTGCA (site AGGAAGACTTG)	0.839
AGGAAGTCATGGACCGGTTTTCCCGGTAATCCGTATTTGCA (site AGGAAGCCTTG)	0.641
AGGAAGTCATGGACCGGTTTTCCCGGTAATCCGTATTTGCA (site AGGAAGGCTTG)	0
AGGAAGTCATGGACCGGTTTTCCCGGTAATCCGTATTTGCA (site AGGAAGTCTTG)	3.29
AGGAAGTCATGGACCGGTTTTCCCGGTAATCCGTATTTGTC (site AGGAAGTCTGA)	3.14
AGGAATTCATGGACCGGTTTTCCCGGTAATCCGTATTTGTT (site AGGAATTCTAA)	2.16
AGGAATTCATGGACCGGTTTTCCCGGTAATCCGTATTTGTT (site CGGAATCCTAA)	0
AGGACGACATGGACCGGTTTTCCCGGTAATCCGTATTTGCA (site AGGAAGACTTG)	0.601
AGGACGACATGGACCGGTTTTCCCGGTAATCCGTATTTGCA (site AGGACGACTTG)	2.51
AGGACGACATGGACCGGTTTTCCCGGTAATCCGTATTTGCA (site AGGAGGACTTG)	1.38
AGGACGACATGGACCGGTTTTCCCGGTAATCCGTATTTGCA (site AGGATGACTTG)	0.853
AGGACGACATGGACCGGTTTTCCCGGTAATCCGTATTTGGA (site AGGAAGACTTG)	0
AGGACGACATGGACCGGTTTTCCCGGTAATCCGTATTTGGA (site AGGACGACTTC)	0.813
AGGACTACATGGACCGGTTTTCCCGGTAATCCGTATTTGGC (site AGGACTACTGA)	0
AGGACTACATGGACCGGTTTTCCCGGTAATCCGTATTTGGC (site AGGACTACTGC)	2.95
AGGACTACATGGACCGGTTTTCCCGGTAATCCGTATTTGGC (site AGGACTACTGG)	0
AGGACTACATGGACCGGTTTTCCCGGTAATCCGTATTTGGC (site AGGACTACTGT)	1.61
AGGACTTCATGGACCGGTTTTCCCGGTAATCCGTATTTGAC (site AGGACTACTGT)	0
AGGACTTCATGGACCGGTTTTCCCGGTAATCCGTATTTGAC (site AGGACTCCTGT)	0.509
AGGACTTCATGGACCGGTTTTCCCGGTAATCCGTATTTGAC (site AGGACTGCTGT)	0
AGGACTTCATGGACCGGTTTTCCCGGTAATCCGTATTTGAC (site AGGACTTCTGT)	2.76

Sequence	recombinant UMI read abundance (log10)
AGGAGGACATGGACCGGTTTTCCCGGTAATCCGTATTTGAA (site AGGAAGACTTG)	0
AGGAGGACATGGACCGGTTTTCCCGGTAATCCGTATTTGAA (site AGGAGGACTTT)	2.19
AGGAGGACATGGACCGGTTTTCCCGGTAATCCGTATTTGCC (site AGGAAGACTTG)	0
AGGAGGACATGGACCGGTTTTCCCGGTAATCCGTATTTGCC (site AGGAGGACTGG)	1.68
AGGATGACATGGACCGGTTTTCCCGGTAATCCGTATTTGCG (site AGGAAGACTTG)	0
AGGATGACATGGACCGGTTTTCCCGGTAATCCGTATTTGCG (site AGGATGACTCG)	2.3
AGGCACGCATGGACCGGTTTTCCCGGTAATCCGTATTTGGG (site AAGCACGCTCC)	0.371
AGGCACGCATGGACCGGTTTTCCCGGTAATCCGTATTTGGG (site ACGCACGCTCC)	0.183
AGGCACGCATGGACCGGTTTTCCCGGTAATCCGTATTTGGG (site AGGCACGCTCC)	1.76
AGGCACGCATGGACCGGTTTTCCCGGTAATCCGTATTTGGG (site ATGCACGCTCC)	0.0107
AGGCACTCATGGACCGGTTTTCCCGGTAATCCGTATTTGCA (site AGGCACTCTTG)	2.66
AGGCGAGCATGGACCGGTTTTCCCGGTAATCCGTATTTGCG (site AGGCGAGCTCG)	2.02
AGGCGTGCATGGACCGGTTTTCCCGGTAATCCGTATTTGGA (site AGGCGTGCTTC)	0.745
AGGCTAGCATGGACCGGTTTTCCCGGTAATCCGTATTTGTT (site AGACTAGCTAA)	0.334
AGGCTAGCATGGACCGGTTTTCCCGGTAATCCGTATTTGTT (site AGCCTAGCTAA)	0.017
AGGCTAGCATGGACCGGTTTTCCCGGTAATCCGTATTTGTT (site AGGCTAGCTAA)	0.779
AGGCTAGCATGGACCGGTTTTCCCGGTAATCCGTATTTGTT (site AGTCTAGCTAA)	0.0182
AGGCTGGCATGGACCGGTTTTCCCGGTAATCCGTATTTGTC (site AGGCTGGCTGA)	0
AGGGAAACATGGACCGGTTTTCCCGGTAATCCGTATTTGCA (site AGGAAGACTTG)	0.301
AGGGAAACATGGACCGGTTTTCCCGGTAATCCGTATTTGCA (site AGGGAAACTTG)	1.42
AGGGAACCATGGACCGGTTTTCCCGGTAATCCGTATTTGAT (site AGGGAACCTAT)	0
AGGGAACCATGGACCGGTTTTCCCGGTAATCCGTATTTGAT (site CGGGAACCTAT)	0
AGGGAACCATGGACCGGTTTTCCCGGTAATCCGTATTTGAT (site GGGGAACCTAT)	0
AGGGAACCATGGACCGGTTTTCCCGGTAATCCGTATTTGAT (site TGGGAACCTAT)	0
AGGGAGACATGGACCGGTTTTCCCGGTAATCCGTATTTGCC (site AGGGAGACTGG)	1.26
